Source: ChEMBL document CHEMBL6177988, “Design, synthesis, biophysical and biological evaluation of original condensed pyrrolopyrimidine and pyrrolopyridine ligands as anti-SARS-CoV-2 agents targeting G4” (Eur J Med Chem, 2025)

Experiments:
[1] = Selectivity index, ratio of CC50 for cytotoxicity against human A549 cells harboring ACE2-CI33 assessed as cell viability by celltiter glo assay to EC50 for antiviral activity against SARS-CoV-2 Wuhan infected in human A549 cells harboring ACE2-Cl33; assay type: toxicity, cell-based; details: read-out: Ratio CC50/EC50
SARS-CoV-2 [2] = experiment: Antiviral activity against SARS-CoV-2 Delta B1.617.2 infected in human A549 cells harboring ACE2-Cl33 at 0.1 MOI assessed as inhibition of viral replication pretreated with compounds for 2 hrs followed by infection for 1 hr and measured after 72 hrs post-infection by qRT-PCR analysis; assay type: functional, organism-based; details: Severe acute respiratory syndrome coronavirus 2, Delta B1.617.2, A549
SARS-CoV-2 [3] = experiment: Antiviral activity against SARS-CoV-2 Wuhan infected in human A549 cells harboring ACE2-Cl33 at 0.1 MOI assessed as inhibition of viral replication pretreated with compounds for 2 hrs followed by infection for 1 hr and measured after 72 hrs post-infection by qRT-PCR analysis; assay type: functional, organism-based; details: Severe acute respiratory syndrome coronavirus 2, Wuhan
SARS-CoV-2 [4] = experiment: Antiviral activity against SARS-CoV-2 Wuhan infected in human Caco-2 cells harboring ACE2-Cl33 at 0.1 MOI assessed as inhibition of viral replication pretreated with compounds for 2 hrs followed by infection for 1 hr and measured after 72 hrs post-infection by qRT-PCR analysis; assay type: functional, organism-based; details: Severe acute respiratory syndrome coronavirus 2, Wuhan
[5] = Selectivity index, ratio of CC50 for cytotoxicity against human Caco-2 cells harboring ACE2-CI33 assessed as cell viability by celltiter glo assay to EC50 for antiviral activity against SARS-CoV-2 Wuhan infected in human A549 cells harboring ACE2-Cl33; assay type: toxicity, cell-based; details: read-out: Ratio CC50/EC50

SMILES	selectivity ratio [1]	EC50 (SARS-CoV-2 [3])	further results
CN(C)CCCCCNCc1ccc(-c2cc3c(ccn3-c3ccccc3)c(-c3ccc(CNCCCCCN(C)C)cc3)n2)cc1	8.18	–	–
CN(C)CCCCNCc1ccc(-c2cc(-c3ccc(CNCCCCN(C)C)cc3)c3ccn(-c4ccccc4)c3c2)cc1	1.88	528 nM	EC50 (SARS-CoV-2 [2]): 681 nM; EC50 (SARS-CoV-2 [4]): 787 nM; selectivity ratio [5]: 0.93
CN1CCN(CCCCNCc2ccc(-c3cc(-c4ccc(CNCCCCN5CCN(C)CC5)cc4)c4ccn(-c5ccccc5)c4c3)cc2)CC1	2.74	–	–
CN(C)CCCCNCc1ccc(-c2nc(-c3ccc(CNCCCCN(C)C)cc3)c3ccn(-c4ccc(CNCCCCN(C)C)cc4)c3n2)cc1	6.67	–	–
CN(C)CCCCNCc1ccc(-c2nc(-c3ccc(CNCCCCN(C)C)cc3)c3ncn(-c4ccccc4)c3n2)cc1	≥ 2.68	–	–
CCN(CC)CCCCNCc1ccc(-c2cc3c(ccn3-c3ccccc3)c(-c3ccc(CNCCCCN(CC)CC)cc3)n2)cc1	> 13.9	–	–
CN(C)CCCCNCc1ccc(-c2cc3c(ccn3-c3ccccc3)c(-c3ccc(CNCCCCN(C)C)cc3)n2)cc1	2.18	–	–
CN(C)CCCCNCc1ccc(-c2cn(-c3ccccc3)c3ncnc(-c4ccc(CNCCCCN(C)C)cc4)c23)cc1	> 9.3	–	–
CN(C)CCCCNCc1ccc(-c2ccc3ccc4ccc(-c5ccc(CNCCCCN(C)C)cc5)nc4c3n2)cc1	> 1.09	9170 nM	–
CN1CCN(CCCCNCc2ccc(-c3ccc4ccc5ccc(-c6ccc(CNCCCCN7CCN(C)CC7)cc6)nc5c4n3)cc2)CC1	–	> 10000 nM	–
CN(C)CCCNCc1ccc(-c2cn(-c3ccc(CNCCCN(C)C)cc3)c3ncnc(-c4ccc(CNCCCN(C)C)cc4)c23)cc1	> 1.43	–	–
CN(C)CCCCNCc1ccc(-c2cc(-c3ccc(CNCCCCN(C)C)cc3)c3ccn(-c4ccccc4)c3n2)cc1	7.38	–	–
CN(C)CCCCNCc1ccc(-c2nc(-c3ccccc3)c3ccn(-c4ccc(CNCCCCN(C)C)cc4)c3n2)cc1	2.64	920 nM	–
CN(C)CCCNCc1ccc(-c2nc(-c3ccc(CNCCCN(C)C)cc3)c3ccn(-c4ccc(CNCCCN(C)C)cc4)c3n2)cc1	> 14.6	436 nM	EC50 (SARS-CoV-2 [4]): 1540 nM; selectivity ratio [5]: ≥ 4.57
CN(C)CCCCCNCc1ccc(-c2cc(-c3ccc(CNCCCCCN(C)C)cc3)c3ccn(-c4ccccc4)c3c2)cc1	2.35	1320 nM	EC50 (SARS-CoV-2 [2]): 1280 nM; EC50 (SARS-CoV-2 [4]): 946 nM; selectivity ratio [5]: 1.88
CN(C)CCCCNCc1ccc(-c2nc(-c3ccc(CNCCCCN(C)C)cc3)c3c(ccn3-c3ccccc3)n2)cc1	> 15.1	–	–
CCC(CC)COC(=O)[C@H](C)N[P@](=O)(OC[C@H]1O[C@@](C#N)(c2ccc3c(N)ncnn23)[C@H](O)[C@@H]1O)Oc1ccccc1 [REMDESIVIR]	> 1.18	–	–
O=c1c(O)cc([C@H]2Oc3cc(O)cc(O)c3C[C@H]2O)cc2c([C@H]3Oc4cc(O)cc(O)c4C[C@H]3O)cc(O)c(O)c12 [THEAFLAVIN]	> 83.3	–	–
